In patent US20240334932A1, “POLYMORPHS HAVING PESTICIDAL ACTIVITY” (CORTEVA AGRISCIENCE LLC, priority 2021, published 2024):

How the values were obtained:
[1] = Air milling of polymorphs, PXRD before and after (Example 12); type: physicochemical; details: Jet Mill to d(0.5)<6 μm and d(0.9)<15 μm
Description: Compound 1, Polymorph A and Compound 1, Polymorph B samples were air milled separately with Jet Mill until particle size of d (0.5)<6 μm and d (0.9)<15 μm. Powder X-Ray Diffraction (PXRD) was conducted on the samples before and after the air milling process.

[2] = test system: adult sweet potato whitefly, B. tabaci; test: Knock-down study, treated glass vial bioassay, hexane anti-solvent experiment (Example 13B); type: in vivo; details: for Effect on B. tabaci behavior compared with the amorphous oil: hexane; for Trt Least Squares Means (proportion scale) Mean: proportion of insects above the 2 cm line: hexane anti-solvent suspension, repeated measures 15-180 min, GLMM
Description: In this study, the effect of Compound 1 on the behavior of adult sweet potato whitefly, B. tabaci was evaluated. In general, different forms of Compound 1 (either inventive Polymorph form A, inventive Polymorph form B, or non-crystalline Compound 1, amorphous oil) were applied to the inside of glass vials and adult B. tabaci were transferred into treated vials, exposing them to Compound 1 via contact with the treated glass surface. To quantify the knock-down effect reported previously (Lee et. al. 2013), a line was scribed 2 cm above the bottom of the treated vials and the number of B. tabaci above the 2 cm line were recorded the first three hours following initial exposure. […] This study characterized the effect of Compound 1, Polymorph A and Compound 1, Polymorph B on adult B. tabaci whitefly behavior using a common treated glass vial bioassay to expose the test insects through direct contact (Busvine 1971), and compared those effects in direct head-to-head comparison with non-cystalline Compound 1. Test compounds were either dissolved in acetone (Example 11A) or suspended in a volatile anti-solvent (hexane) (Example 11B), and then evenly coated on the inside of a glass vial using a laboratory-roller. In this experiment, three forms of Compound 1 (Polymorph form A, Polymorph form B, and non-crystalline, amorphous oil) were evaluated for their effect on B. tabaci behavior, polymorph A, polymorph B and an amorphous oil. The samples of Polymorph form A and Polymorph form B were finely milled as described in Example 12. The experimental design of the hexane experiment, including rates (25, 2.5, and 0.25 g/ha), replication (three replications per treatment), and preparation of the treatment suspension was similar to the process described for Example 13A. However, hexane was used instead of acetone. […] Following sonication, samples were again mixed using a vortex mixer immediately before transferring 151 μl of each stock suspension to 11.85 mL of hexane to create the treatment suspension for the 25 g/ha rate (resulting in 0.25 μg/cm^2). The 25 g/ha treatment suspension was serially diluted ten-fold, two times to generate treatment suspensions for the 2.5 and 0.25 g/ha rates. 3 mL of each treatment suspension was transferred into the 11-dram vials and the vials were placed on a laboratory tube roller and rotated at room temperature until the hexane had fully evaporated, leaving an even coating of Compound 1 particles on the inside of the vials. The solvent blank vials were treated with 3 mL of hexane. Following treatment, the vials were stored, infested with approximately 117.4, 47-219 (Mean, min-max) adult B. tabaci, and evaluated as described in the acetone experiment. For each trial and rate, the proportion of insects above the 2 cm line was analyzed with a generalized linear mixed model (GLMM) for repeated measures with binomial response and logit link function (Stroup, 2012). The use of the generalized linear model with binomial distribution for the response, instead of the linear model with normal distribution (ANOVA), allows the correct use of the distributional assumptions and actual sample size (number of insects) used in the experiments. The model included Treatment, Time point, and the interaction Treatment x Time point as fixed effects and the replicate (experimental unit) as random effect. The correlation between repeated measures was modeled with the compound symmetry covariance matrix. The generalized linear mixed models were estimated with the residual pseudo-likelihood method, and the means of the treatment proportions were compared with Tukey's tests (α=0.05) (Stroup 2012). Statistical analyses were performed with SAS Proc GLIMMIX (SAS Software, Version 9.4, SAS Institute Inc., Cary, NC).

[3] = Dissolution in hexane (anti-solvent); type: physicochemical
[4] = test system: adult sweet potato whitefly, B. tabaci; test: Knock-down study, treated glass vial bioassay, acetone experiment (Example 13A); type: in vivo, B. tabaci (Middle East Asia Minor1 (MEAM1) biotype); details: for Effect on B. tabaci behavior compared with the amorphous oil: acetone; for Trt Least Squares Means (proportion scale) Mean: proportion of insects above the 2 cm line: applied from acetone, repeated measures 15-180 min, GLMM
Description: In this study, the effect of Compound 1 on the behavior of adult sweet potato whitefly, B. tabaci was evaluated. In general, different forms of Compound 1 (either inventive Polymorph form A, inventive Polymorph form B, or non-crystalline Compound 1, amorphous oil) were applied to the inside of glass vials and adult B. tabaci were transferred into treated vials, exposing them to Compound 1 via contact with the treated glass surface. To quantify the knock-down effect reported previously (Lee et. al. 2013), a line was scribed 2 cm above the bottom of the treated vials and the number of B. tabaci above the 2 cm line were recorded the first three hours following initial exposure.
This study characterized the effect of Compound 1, Polymorph A and Compound 1, Polymorph B on adult B. tabaci whitefly behavior using a common treated glass vial bioassay to expose the test insects through direct contact (Busvine 1971), and compared those effects in direct head-to-head comparison with non-cystalline Compound 1. Test compounds were either dissolved in acetone (Example 11A) or suspended in a volatile anti-solvent (hexane) (Example 11B), and then evenly coated on the inside of a glass vial using a laboratory-roller.
In this experiment, two forms of Compound 1 (polymorph form B and an amorphous oil) were evaluated for their effect on B. tabaci behavior. Three application rates were evaluated for each form of Compound 1 (25 g/ha, 2.5 g/ha,and 0.25 g/ha), in addition to a solvent blank control. Each treatment and the control were replicated three times. Compound 1 samples were dissolved in acetone and were coated on the inside of a 11-dram screw-top glass vial (Fisherbrand 03-339-21N) (Fisher Scientific, Hampton, NH). […] To treat the vials, a stock solution of each sample was first prepared by dissolving 1 mg of Compound 1 sample (either polymorph form B or an amorphous oil) in 2 ml of acetone. The stock solution was agitated using a laboratory vortex mixer to ensure complete mixture of the solution. 151 μL of each stock solution was added to 11.85 mL of acetone to create the treatment solution for the 25 g/ha rate (resulting in 0.25 μg/cm^2). The 25 g/ha treatment solution was serially diluted ten-fold, two times to generate treatment solutions for the 2.5 and 0.25 g/ha rates. 3 mL of each treatment solution was transferred into the 11-dram vials and the vials were placed on a laboratory tube roller and rotated at room temperature until the acetone had fully evaporated, leaving a coating of Compound 1 on the inside of the vials. The solvent blank vials were treated with 3 mL of acetone. After treatment, the vials were left open in a fume hood overnight at room temperature in preparation for testing the following day. Mixed-sex adult B. tabaci whiteflies (Middle East Asia Minor1 (MEAM1) biotype) were collected from a susceptible colony maintained at Corteva Agriscience (Indianapolis, IN). The adult B. tabaci were anesthetized with CO2 and approximately 66.5, 32-102 (Mean, min-max) were introduced into each of the treated vials and their behavior recorded. To evaluate B. tabaci behavior, a line was scribed 2 cm above the bottom of the vial and the number of individuals above the line were recorded at 15, 30, 45, 60, 90, 120, 150, and 180 min after introduction. Following completion of the experiment, the insects were devitalized by freezing at −30° C. for 72 h after which the total number of insects in each vial was recorded. The percentage of B. tabaci above the 2 cm line was calculated for each rate and was used to graph the effect of Compound 1 on whiteflies over time.
For each trial and rate, the proportion of insects above the 2 cm line was analyzed with a generalized linear mixed model (GLMM) for repeated measures with binomial response and logit link function (Stroup, 2012). […]

SMILES	Polymorphic form after the air milling process (PXRD) [1]	Effect on B. tabaci behavior compared with the amorphous oil ([2]; 0.25 g/ha)	Trt Least Squares Means (proportion scale) Mean: proportion of insects above the 2 cm line ([2]; 0.25 g/ha)	Effect on B. tabaci behavior compared with the amorphous oil ([2]; 2.5 g/ha)	Trt Least Squares Means (proportion scale) Mean: proportion of insects above the 2 cm line ([2]; 2.5 g/ha)	Effect on B. tabaci behavior compared with the amorphous oil ([2]; 25 g/ha)	Trt Least Squares Means (proportion scale) Mean: proportion of insects above the 2 cm line ([2]; 25 g/ha)	Solubility in hexane [3]	Effect on B. tabaci behavior compared with the amorphous oil ([4]; 0.25 g/ha)	Trt Least Squares Means (proportion scale) Mean: proportion of insects above the 2 cm line ([4]; 0.25 g/ha)	Effect on B. tabaci behavior compared with the amorphous oil ([4]; 2.5 g/ha)	Trt Least Squares Means (proportion scale) Mean: proportion of insects above the 2 cm line ([4]; 2.5 g/ha)	Effect on B. tabaci behavior compared with the amorphous oil ([4]; 25 g/ha)	Trt Least Squares Means (proportion scale) Mean: proportion of insects above the 2 cm line ([4]; 25 g/ha)
CCN(C(=O)CCS(C)(=O)=O)c1sc(-c2cccnc2)nc1Cl [Polymorph A, N-[4-chloro-2-(pyridin-3-yl)-1,3-thiazol-5-yl]-N-ethyl-3-(methylsulfonyl) propanamide]	unchanged	more negatively affected than those exposed to the amorphous oil	0.342	significantly affected when compared directly to the amorphous oil	0.080	not a difference in the effect	0.015							
CCN(C(=O)CCS(C)(=O)=O)c1sc(-c2cccnc2)nc1Cl [Compound 1, N-[4-chloro-2-(pyridin-3-yl)-1,3-thiazol-5-yl]-N-ethyl-3-(methylsulfonyl) propanamide]								does not readily dissolve						
CCN(C(=O)CCS(C)(=O)=O)c1sc(-c2cccnc2)nc1Cl [Polymorph B, N-[4-chloro-2-(pyridin-3-yl)-1,3-thiazol-5-yl]-N-ethyl-3-(methylsulfonyl) propanamide]	unchanged	more negatively affected than those exposed to the amorphous oil	0.345	significantly affected when compared directly to the amorphous oil	0.079	not a difference in the effect	0.013		not a difference in the effect	0.502	more affected than insects exposed to the amorphous oil	0.156	no difference in the effect	0.115
CCN(C(=O)CCS(C)(=O)=O)c1sc(-c2cccnc2)nc1Cl [amorphous oil, N-[4-chloro-2-(pyridin-3-yl)-1,3-thiazol-5-yl]-N-ethyl-3-(methylsulfonyl) propanamide, reference compound]			0.601		0.453		0.029			0.295		0.326		0.167
